Reference: patent publication US12043599B2, “Herbicidal compounds” (SYNGENTA PARTICIPATIONS AG, priority 2018, dated 2024)

Legend:
Format in all cases: in vivo
Details in all cases: 250 g/h, evaluated after 13 days
[1] = system: Setaria faberi (SETFA); test: Pre-emergence herbicidal glasshouse test, percentage damage
How it was run: (§1)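 Herbicidal effect was scored 13 days after a 250 g/h spray, using bands of 0-19% (1) through 80-100% (5). Sowing preceded spraying by 1 day for pre-emergence and 8 days for post-emergence. The glasshouse ran at 24/16 °C with 14 h light.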

[2] = system: Alopecurus myosuroides (ALOMY); test: as above
How it was run: as §1

[3] = system: Avena fatua (AVEFA); test: as above
How it was run: as §1

[4] = system: Echinochloa crus-galli (ECHCG); test: as above
How it was run: as §1

[5] = system: Lolium perenne (LOLPE); test: as above
How it was run: as §1

[6] = system: Alopecurus myosuroides (ALOMY); test: Post-emergence herbicidal glasshouse test, percentage damage
How it was run: as §1

[7] = system: Avena fatua (AVEFA); test: as above
How it was run: as §1

[8] = system: Echinochloa crus-galli (ECHCG); test: as above
How it was run: as §1

[9] = system: Lolium perenne (LOLPE); test: as above
How it was run: as §1

[10] = system: Setaria faberi (SETFA); test: as above
How it was run: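 Percentage damage was scored 13 days after treatment on a five-point scale (1=0-19% to 5=80-100%). Treatments were post-emergence sprays on 8-day-old wheat, barley and SETFA plants in a glasshouse (24/16 °C day/night, 14 h light, 65% humidity), using acetone/water 50:50 with 0.5% Tween 20 at the stated rates. Wheat additionally received cloquintocet-mexyl safener at 50 g/ha.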

| Structure (SMILES) | SETFA PRE percentage damage (five point scale) [1] | ALOMY PRE percentage damage (five point scale) [2] | AVEFA PRE percentage damage (five point scale) [3] | ECHCG PRE percentage damage (five point scale) [4] | LOLPE PRE percentage damage (five point scale) [5] | ALOMY POST percentage damage (five point scale) [6] | AVEFA POST percentage damage (five point scale) [7] | ECHCG POST percentage damage (five point scale) [8] | LOLPE POST percentage damage (five point scale) [9] | SETFA POST percentage damage (five point scale) [10] |
| --- | --- | --- | --- | --- | --- | --- | --- | --- | --- | --- |
| CC#Cc1cc(C)c(C2C(=O)CC3(CCN(C(=O)[C@H](C)OC)CC3)CC2=O)c(C)c1 [Compound A153] | 5 (5=80-100%) | 5 (5=80-100%) | 5 (5=80-100%) | 5 (5=80-100%) | 5 (5=80-100%) | 5 (5=80-100%) | 5 (5=80-100%) | 5 (5=80-100%) | 5 (5=80-100%) | 5 (5=80-100%) |
| CC#Cc1cc(C)c(C2C(=O)CC3(CCN(C(=O)COCCCl)CC3)CC2=O)c(C)c1 [Compound A200] | 5 (5=80-100%) | 5 (5=80-100%) | 4 (4=60-79%) | 5 (5=80-100%) | 5 (5=80-100%) | 5 (5=80-100%) | 5 (5=80-100%) | 5 (5=80-100%) | 5 (5=80-100%) | 5 (5=80-100%) |
| CC#Cc1cc(C)c(C2C(=O)CC3(CCN(C(=O)Nc4cccnc4)CC3)CC2=O)c(C)c1 [Compound A22] | 5 (5=80-100%) | 5 (5=80-100%) | 5 (5=80-100%) | 5 (5=80-100%) | 5 (5=80-100%) | 5 (5=80-100%) | 5 (5=80-100%) | 5 (5=80-100%) | 5 (5=80-100%) | 5 (5=80-100%) |
| CC#Cc1cc(C)c(C2=C(OC(=O)C3CCC3)CC3(CCN(C(=O)C4CCC4)CC3)CC2=O)c(C)c1 [Compound P3] | 5 (5=80-100%) | 5 (5=80-100%) | 5 (5=80-100%) | 5 (5=80-100%) | 5 (5=80-100%) | 5 (5=80-100%) | 5 (5=80-100%) | 5 (5=80-100%) | 5 (5=80-100%) | 5 (5=80-100%) |
| CC#Cc1cc(C)c(C2C(=O)CC3(CCN(C(=O)NC(=O)c4ncc(C(F)(F)F)cc4Cl)CC3)CC2=O)c(C)c1 [Compound A158] | 5 (5=80-100%) | 2 (2=20-39%) | 2 (2=20-39%) | 5 (5=80-100%) | 3 (3=40-59%) | 3 (3=40-59%) | 5 (5=80-100%) | 5 (5=80-100%) | 5 (5=80-100%) | 5 (5=80-100%) |
